According to patent publication US20080069849A1, “Novel Antimicrobial Peptides” (Dermagen AB, priority 2004, published 2008):

Experiments:
[1] = Pore formation / carboxyfluorescein leakage of liposomes; details: 10 mM Tris, pH 7.4
Experimental: (§1) Peptides were tested for binding to lipid bilayers, resulting pore formation and peptide secondary structure in the lipid membranes. Lipid membranes investigated included both zwitterionic ones (containing phosphatidylcholine) and anionic ones (containing mixtures of phosphatidylcholine and phosphatidic acid). Lipid membranes were deposited at silica, and the binding of the peptides from 10 mM Tris, pH 7.4, was directly monitored by ellipsometry. […] Pore formation in these liposomes were determined by including carboxyfluorescein in the liposomes and following the fluorescence intensity increase on addition of peptides to the liposomes. Furthermore, the secondary structure of the peptides in the liposome lipid membranes was probed by circular dichroism.

P. aeruginosa 27.1 = test: Radial diffusion assay analysis of CNY variants (Example 4); format: cell-based, Pseudomonas aeruginosa; details: peptides 100 μM
Experimental: Radial diffusion assays (RDA) were performed essentially as described earlier (Andersson et al., Eur J Biochem, 2004, 271:1219-1226). Briefly, bacteria (P. aeruginosa 27.1) were grown to mid-logarithmic phase in 10 ml of full-strength (3% w/v) trypticase soy broth (TSB) (Becton-Dickinson, Cockeysville, Md.). The microorganisms were washed once with […] Tris, pH 7.4. 4×10^6 bacterial cfu or 1×10^5 fungal cfu was added to 5 ml of the underlay agarose gel, consisting of 0.03% (w/v) TSB, 1% (w/v) low-electroendosmosistype (Low-EEO) agarose (Sigma, St Louise Mo.) and a final concentration of 0.02% (v/v) Tween 20 (Sigma). The underlay was poured into a Ø 85 mm petri dish. After agarose solidified, 4 mm-diameter wells were punched and 6 μl of test sample was added to each well. Plates were incubated at 37° C. for 3 hours to allow diffusion of the peptides. The underlay gel was then covered with 5 ml of molten overlay (6% TSB and 1% Low-EEO agarose in dH2O). Antimicrobial activity of a peptide is visualized as a clear zone around each well after 18-24 hours of incubation at 37° C. Synthetic peptides were tested in concentrations of 100 μM to determine the antibacterial effect (FIG. 8). CNY21; […], CNY20; […], CNY21R-S; […], CNY20R-S; […], CNY21H-L: […], CNY21H-K: […], CNY21H-P: […].

[2] = Binding to lipid bilayers by ellipsometry; details: 10 mM Tris, pH 7.4
Experimental: as §1

[3] = Heparin binding on nitrocellulose with radiolabelled heparin; details: unlabelled heparin 6 mg/ml
Experimental: Peptides were tested for heparin binding activities. Peptides were applied on nitrocellulose membranes (Hybond, Amersham Biosciences). Membranes were blocked (PBS, pH 7.4, 0.25% Tween 20, 3% bovine serum albumin) for one hour and incubated with radiolabelled heparin for one hour in the same buffer. […] The membranes were washed (3×10 min in PBS, pH 7.4, 0.25% Tween 20). A Bas 2000 radio imaging system (Fuji) was used for visualization of radioactivity.

Escherichia coli 37.4 = test: Radial diffusion assay (RDA), E. coli 37.4; format: cell-based; details: for RDA (mm) E. coli 37.4 Mean: zone of inhibition
Experimental: (§2) Escherichia coli 37.4 isolate was originally obtained from a patient with a chronic venous ulcer, while Staphylococcus aureus isolate BD14312 was from a patient with atopic dermatitis. Staphylococcus aureus ATCC29213 and Candida albicans ATCC90028 were both obtained from the Clinical Bacteriology Department at Lund University hospital.
(§3) Essentially as described earlier (Lehrer et al., J Immunol Methods 137, 167-173, 1991, Andersson et al., Eur J Biochem 271, 1219-1226, 2004) bacteria were grown to mid-logarithmic phase in 10 ml of full-strength (3% w/v) trypticase soy broth (TSB) (Becton-Dickinson, Cockeysville, Md.). The microorganisms were then washed once with 10 mM Tris, pH 7.4.4×10^6 bacterial colony forming units were added to 15 ml of the underlay agarose gel, consisting of 0.03% (w/v) TSB, 1% (w/v) low electroendosmosis type (EEO) agarose (Sigma, St Louis Mo.) and 0.02% (v/v) Tween 20 (Sigma). The underlay was poured into a ø 144 mm petri dish. After agarose solidification, 4 mm-diameter wells were punched and 6 μl of test sample was added to each well. Plates were incubated at 37° C. for 3 hours to allow diffusion of the peptides. The underlay gel was then covered with 15 ml of molten overlay (6% TSB and 1% Low-EEO agarose in dH2O). Antimicrobial activity of a peptide is visualized as a zone of clearing around each well after 18-24 hours of incubation at 37° C.

[4] = test system: Pseudomonas aeruginosa 15159; test: Radial diffusion assay (RDA), P. aeruginosa 15159; format: cell-based; details: 100 μM of peptides, n=9
Experimental: as §3
Based on the criteria defined in EXAMPLE 1 several new variants with increased positive net charge, high helicity and increased amphipathicity were designed and synthesized. In order to rationally test as many different variants as possible a PEP screen library was utilized as described above. […]

[5] = test system: Staphylococcus aureus isolate BD14312; test: Radial diffusion assay (RDA), S. aureus BD14312; format: cell-based; details: zone of inhibition; mean of three measurements; Table 1
Experimental: as §2, §3

[6] = test system: Staphylococcus aureus ATCC29213; test: Radial diffusion assay (RDA), S. aureus ATCC29213; format: cell-based; details: zone of inhibition
Experimental: as §2, §3

[7] = test system: Candida albicans ATCC90028; test: Radial diffusion assay (RDA), Candida ATCC90028; format: cell-based; details: zone of inhibition; mean of three measurements; Table 1
Experimental: as §2, §3

[8] = Table 2, second generation PEPscreen

Row | Molecule | pore formation and leakage of liposomes, order of efficiency [1] | antibacterial effect in RDA (P. aeruginosa 27.1) | binding to lipid membranes [2] | also measured
1 | CNYITELRRQKARASKLGLAR [CNY21H-K] | CNY21H-L≈CNY21H-K>CNY21>CNY21H-P≧CNY21 R-S | larger anti-bacterial effect | – | –
2 | CNYITELSSQHASASHLGLAR [CNY21R-S] | CNY21H-L≈CNY21H-K>CNY21>CNY21H-P≧CNY21 R-S | – | CNY21 shows a higher binding tendency than CNY21 R-S | –
3 | CNYITELRRQHARASHLGLAR [CNY21] | CNY21H-L≈CNY21H-K>CNY21>CNY21H-P≧CNY21 R-S | – | binds to zwitterionic and anionic lipid membranes | heparin binding, competition by unlabelled heparin [3]: inhibited the binding; RDA mean value, E. coli (Escherichia coli 37.4; 100 μM of peptides, n=9): 6.02; RDA mean value, P. aeruginosa [4]: 5.00
4 | CC[C@H](C)[C@H](NC(=O)[C@H](CCCCN)NC(=O)[C@H](CCC(=O)O)NC(=O)[C@H](CCCCN)NC(=O)[C@H](CO)NC(=O)[C@H](CCCCN)NC(=O)[C@H](CCCNC(=N)N)NC(=O)[C@H](Cc1ccccc1)NC(=O)[C@H](Cc1ccccc1)NC(=O)[C@H](CC(=O)O)NC(=O)CNC(=O)[C@H](CC(C)C)NC(=O)[C@@H](N)CC(C)C)C(=O)NCC(=O)N[C@@H](CCCCN)C(=O)N[C@@H](CCC(=O)O)C(=O)N[C@@H](Cc1ccccc1)C(=O)N[C@@H](CCCCN)C(=O)N[C@@H](CCCNC(=N)N)C(=O)N[C@H](C(=O)N[C@H](C(=O)N[C@@H](CCC(N)=O)C(=O)N[C@@H](CCCNC(=N)N)C(=O)N[C@H](C(=O)N[C@@H](CCCCN)C(=O)N[C@@H](CC(=O)O)C(=O)N[C@@H](Cc1ccccc1)C(=O)N[C@@H](CC(C)C)C(=O)N[C@@H](CCCNC(=N)N)C(=O)N[C@@H](CC(N)=O)C(=O)N[C@@H](CC(C)C)C(=O)N[C@H](C(=O)N1CCC[C@H]1C(=O)N[C@@H](CCCNC(=N)N)C(=O)N[C@H](C(=O)N[C@@H](CCC(=O)O)C(=O)N[C@@H](CO)C(=O)O)[C@@H](C)O)C(C)C)[C@@H](C)CC)C(C)C)[C@@H](C)CC [LL37, reference compound] | – | – | – | RDA (mm) S. aureus BD14312 Mean [5]: 1.285 mm; RDA (mm) S. aureus ATCC29213 Mean [6, 8]: 8.755 mm; RDA (mm) S. aureus ATCC29213 Mean ([6]; mean of three measurements, Table 1): 2.215 mm; RDA (mm) E. coli 37.4 Mean (Escherichia coli 37.4; [8]): 5.604 mm; RDA (mm) E. coli 37.4 Mean (Escherichia coli 37.4; mean of six measurements, Table 1): 3.529 mm; RDA (mm) Candida ATCC90028 Mean [7]: 2.43 mm
5 | CNYITELRRQLARASLLGLAR [CNY21H-L] | CNY21H-L≈CNY21H-K>CNY21>CNY21H-P≧CNY21 R-S | larger anti-bacterial effect | – | –
6 | CNYITELRRQPARASPLGLAR [CNY21H-P] | CNY21H-L≈CNY21H-K>CNY21>CNY21H-P≧CNY21 R-S | no antimicrobial effects | – | –
